Measured values taken from patent US20230339927A1, “ATR INHIBITORS AND USES THEREOF” (ANTENGENE DISCOVERY LIMITED, priority 2020, published 2023).

Legend:
[1] = biological target: T1, ATR kinase (Homo sapiens, UniProt Q13535); assay: ATR inhibition assay (mobility shift assay, FAM-RAD17 phosphorylation); assay type: biochemical; conditions: substrate FAM-RAD17, ATR kinase (Eurofins)
T1 construct: purchased Eurofins 14-953
Experimental: Assay 1: ATR Inhibition Assay
The assay was developed and conducted at Chempartner. All the test compounds were dissolved in 100% DMSO at concentration of 20 mM, then prepare compounds and conducted the assay as follows:
1) Transfer 80 µl20 mM compound to 40 µl of 100% DMSO in a 96-well plate.
2) Serially dilute the compound by transferring 20 µl to 60 µl of 100% DMSO in the next well and so forth for a total of 10 concentrations.
3) Add 100 µl of 100% DMSO to two empty wells for no compound control and no enzyme control in the same 96-well plate. Mark the plate as source plate.
4) Transfer 40 µl of compound from source plate to a new 384-well plate as the intermediate plate.
5) Transfer 60 nl compounds to assay plate by Echo.
No. D14JP007N) into Kinase base buffer (50 mM HEPES, pH 7.5; 0.0015% Brij-35; 0.01% Triton) to prepare 2x enzyme solution, then add 10 µl of 2x enzyme solution to each well of the 384-well assay plate, incubate at room temperature for 10 min.
8) Incubate at 28° C. for specified period of time. Add 40 µl of stop buffer (100 mM HEPES, pH 7.5; 0.015% Brij-35; 0.2% Coating Reagent #3; 50 mM EDTA) to stop reaction.
9) Collect data on Caliper. Convert conversion values to inhibition values.
wherein “max” stands for DMSO control; “min” stands for low control.
Fit the data in XLFit excel add-in version 5.4.0.8 to obtain IC50 values. Equation used is: […]
wherein X means concentration in a format not transformed to logarithms.

[2] = system: LoVo (CCL-229) human colorectal cancer cells; assay: Tumor cell anti-proliferation assay (CTG assay); assay type: cell-based; conditions: 96 h incubation, CellTiter-Glo, IC50 (Y=50%)
Excerpt: Assay 2: Tumor Cell Anti-proliferation Assay (CTG Assay)
Human colorectal cancer cells HT-29 (HTB-38) and LoVo (CCL-229) were selected for the CTG assay, the two cell lines were originally obtained from the American Type Culture Collection (ATCC). Add FBS and appropriate additives into base medium to prepare complete medium, then briefly rinse the cell layer with 0.25% (w/v) Trypsin-0.038% (w/v) EDTA solution to remove all traces of serum that contains trypsin inhibitor, after that, add appropriate volume of Trypsin-EDTA solution to flask and observe cells under an inverted microscope until cell layer is dispersed, at last, add appropriate volume of complete growth medium and aspirate cells by gently pipetting. Collect and count numbers with Vi-cell XR and adjust cell density, seed cells into 96-well opaque-walled clear bottom tissue-culture treated plates in the CO2 incubator for 20-24 hours. All the test compounds will be at 10 mM in DMSO. Compounds are then added to the cell media in 3-fold serial dilutions, the final DMSO concentration is 0.5%. Incubate plates for 96 h at 5% CO2, 37° C. Before the measurement, transfer the appropriate volume of CellTiter-Glo Buffer into the amber bottle containing CellTiter-Glo substrate to reconstitute the lyophilized enzyme/substrate mixture, mix gently, this forms the CellTiter-Glo Reagent (Promega Cat. No. G7573). Equilibrate the plate and its contents to room temperature for approximately 30 minutes, then add 100 µL of CellTiter-Glo Reagent to the assay plate, mix contents for 2 minutes on an orbital shaker to induce cell lysis, incubate at room temperature for 10 minutes to stabilize luminescent signal, at last paste the clear bottom with white back seal and record luminescence with Enspire. IC50 and GI50 values were calculated with XLFit curve fitting software using 4 Parameter Logistic Model Y=Bottom + (Top-Bottom)/(1+(IC50/X)^HillSlope).
The following Table 3 provides the IC50 (Y=50%) values for exemplary compounds of Formula (I).

T1 sequence (Q13535 whole entry): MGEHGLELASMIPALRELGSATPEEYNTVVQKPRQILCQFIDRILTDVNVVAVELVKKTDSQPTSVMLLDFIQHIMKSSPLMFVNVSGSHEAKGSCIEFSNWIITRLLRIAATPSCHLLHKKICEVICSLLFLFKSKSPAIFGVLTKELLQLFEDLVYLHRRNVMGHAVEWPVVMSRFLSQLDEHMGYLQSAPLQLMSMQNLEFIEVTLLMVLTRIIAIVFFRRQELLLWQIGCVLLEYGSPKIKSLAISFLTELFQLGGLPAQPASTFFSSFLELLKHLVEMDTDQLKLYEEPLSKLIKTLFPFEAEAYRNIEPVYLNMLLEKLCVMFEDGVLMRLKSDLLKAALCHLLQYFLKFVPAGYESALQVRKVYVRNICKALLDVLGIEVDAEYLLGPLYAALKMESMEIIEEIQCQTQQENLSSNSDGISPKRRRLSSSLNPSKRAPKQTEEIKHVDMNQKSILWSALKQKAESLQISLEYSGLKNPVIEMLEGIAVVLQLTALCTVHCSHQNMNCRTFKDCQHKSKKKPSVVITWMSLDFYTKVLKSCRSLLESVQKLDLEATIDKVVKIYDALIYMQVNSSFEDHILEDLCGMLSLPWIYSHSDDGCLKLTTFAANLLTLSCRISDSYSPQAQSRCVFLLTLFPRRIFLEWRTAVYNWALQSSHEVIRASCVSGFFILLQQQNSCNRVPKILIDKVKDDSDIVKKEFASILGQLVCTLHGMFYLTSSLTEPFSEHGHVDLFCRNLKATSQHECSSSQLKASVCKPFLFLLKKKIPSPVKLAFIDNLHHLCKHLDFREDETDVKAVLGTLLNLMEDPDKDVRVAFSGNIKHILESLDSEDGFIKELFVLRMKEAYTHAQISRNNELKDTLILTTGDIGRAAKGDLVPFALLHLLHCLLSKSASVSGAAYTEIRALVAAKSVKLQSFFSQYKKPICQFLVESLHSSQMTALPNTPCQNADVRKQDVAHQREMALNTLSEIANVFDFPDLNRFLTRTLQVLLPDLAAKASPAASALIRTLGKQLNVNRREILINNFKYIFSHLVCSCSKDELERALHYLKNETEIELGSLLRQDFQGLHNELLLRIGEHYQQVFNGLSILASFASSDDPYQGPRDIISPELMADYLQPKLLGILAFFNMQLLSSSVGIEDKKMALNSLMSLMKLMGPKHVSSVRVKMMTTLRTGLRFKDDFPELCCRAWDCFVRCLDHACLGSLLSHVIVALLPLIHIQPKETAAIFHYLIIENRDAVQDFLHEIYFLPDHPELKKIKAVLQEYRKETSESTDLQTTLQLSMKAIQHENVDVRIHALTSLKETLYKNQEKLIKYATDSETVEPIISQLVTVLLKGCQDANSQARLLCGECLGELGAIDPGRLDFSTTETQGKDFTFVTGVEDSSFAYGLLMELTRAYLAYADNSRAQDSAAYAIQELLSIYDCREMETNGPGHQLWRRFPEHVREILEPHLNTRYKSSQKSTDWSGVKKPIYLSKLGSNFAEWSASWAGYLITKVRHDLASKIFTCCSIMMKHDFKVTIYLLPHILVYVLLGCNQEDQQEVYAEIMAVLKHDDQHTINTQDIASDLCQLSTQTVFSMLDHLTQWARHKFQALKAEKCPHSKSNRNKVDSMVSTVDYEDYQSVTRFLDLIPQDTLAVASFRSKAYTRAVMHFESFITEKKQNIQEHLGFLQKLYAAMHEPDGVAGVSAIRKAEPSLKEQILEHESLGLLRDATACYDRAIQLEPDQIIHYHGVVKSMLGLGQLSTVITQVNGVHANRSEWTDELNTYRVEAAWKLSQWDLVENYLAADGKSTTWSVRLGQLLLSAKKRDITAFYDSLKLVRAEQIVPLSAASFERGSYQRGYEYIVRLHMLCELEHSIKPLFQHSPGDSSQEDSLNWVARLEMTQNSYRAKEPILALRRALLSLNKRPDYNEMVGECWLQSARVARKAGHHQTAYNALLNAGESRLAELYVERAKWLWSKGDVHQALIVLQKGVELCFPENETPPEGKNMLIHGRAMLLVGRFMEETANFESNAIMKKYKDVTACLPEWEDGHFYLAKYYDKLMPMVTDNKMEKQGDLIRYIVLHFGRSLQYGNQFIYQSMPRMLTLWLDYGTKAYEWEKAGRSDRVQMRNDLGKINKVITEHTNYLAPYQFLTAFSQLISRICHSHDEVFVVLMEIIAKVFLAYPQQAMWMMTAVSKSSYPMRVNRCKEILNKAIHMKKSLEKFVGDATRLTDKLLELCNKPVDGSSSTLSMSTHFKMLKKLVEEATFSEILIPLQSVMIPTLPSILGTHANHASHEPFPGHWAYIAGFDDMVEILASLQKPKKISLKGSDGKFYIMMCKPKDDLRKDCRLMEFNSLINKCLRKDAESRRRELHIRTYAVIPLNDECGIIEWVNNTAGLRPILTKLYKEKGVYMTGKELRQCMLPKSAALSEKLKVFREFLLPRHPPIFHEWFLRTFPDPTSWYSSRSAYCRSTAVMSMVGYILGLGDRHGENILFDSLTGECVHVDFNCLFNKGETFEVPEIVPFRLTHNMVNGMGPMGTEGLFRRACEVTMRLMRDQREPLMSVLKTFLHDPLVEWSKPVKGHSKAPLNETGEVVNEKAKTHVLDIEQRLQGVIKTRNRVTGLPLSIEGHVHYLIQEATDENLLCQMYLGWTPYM
T1 sequence (Q8WXE1 whole entry partner): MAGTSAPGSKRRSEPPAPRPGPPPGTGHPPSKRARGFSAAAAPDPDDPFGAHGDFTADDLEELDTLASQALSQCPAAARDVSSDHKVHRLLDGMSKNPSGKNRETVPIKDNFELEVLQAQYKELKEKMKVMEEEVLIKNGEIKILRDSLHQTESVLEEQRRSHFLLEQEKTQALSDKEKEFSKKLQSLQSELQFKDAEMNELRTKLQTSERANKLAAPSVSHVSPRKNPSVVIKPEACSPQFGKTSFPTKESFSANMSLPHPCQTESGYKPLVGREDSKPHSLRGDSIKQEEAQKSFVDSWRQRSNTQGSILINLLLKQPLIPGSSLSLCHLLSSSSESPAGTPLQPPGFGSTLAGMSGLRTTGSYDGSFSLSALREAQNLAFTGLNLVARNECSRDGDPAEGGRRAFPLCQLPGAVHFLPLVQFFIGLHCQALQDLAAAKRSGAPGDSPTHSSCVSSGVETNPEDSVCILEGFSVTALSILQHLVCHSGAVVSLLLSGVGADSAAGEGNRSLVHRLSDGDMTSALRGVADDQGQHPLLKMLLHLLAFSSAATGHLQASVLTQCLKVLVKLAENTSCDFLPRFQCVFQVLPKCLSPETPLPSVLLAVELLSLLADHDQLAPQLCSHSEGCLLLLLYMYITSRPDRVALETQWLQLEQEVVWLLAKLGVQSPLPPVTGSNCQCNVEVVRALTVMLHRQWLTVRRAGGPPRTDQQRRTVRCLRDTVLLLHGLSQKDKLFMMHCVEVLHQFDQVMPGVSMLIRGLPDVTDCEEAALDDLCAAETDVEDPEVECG

Row | Compound | IC50 [1] [nM] | IC50 [2] [nM]
1 | Cc1cc(Nc2cc(C(C)(C)C#N)cc(N3CCOC[C@H]3C)n2)[nH]n1 [Compound 25, 2-methyl-2-{2-[(3-methyl-1H-pyrazol-5-yl)amino]-6-[(3R)-3-methylmorpholin-4-yl]pyridin-4-yl}propanenitrile] | 11.8 | 309
2 | C[C@@H]1COCCN1c1cc(C(C)(C)S(C)(=O)=O)cc(Nc2ccn[nH]2)n1 [Compound 26, (R)-6-(3-methylmorpholino)-4-(2-(methylsulfonyl)propan-2-yl)-N-(1H-pyrazol-5-yl)pyridin-2-amine] | 22 | 517
3 | Cc1cc(Nc2cc(C(C)(C)S(C)(=O)=O)cc(N3CCOC[C@H]3C)n2)[nH]n1 [Compound 27, 4-(2-methanesulfonylpropan-2-yl)-N-(3-methyl-1H-pyrazol-5-yl)-6-[(3R)-3-methylmorpholin-4-yl]pyridin-2-amine] | 15.7 | 564
4 | C[C@@H]1COCCN1c1cc(C(C)(C)C#N)nc(Nc2ccn[nH]2)n1 [Compound 28, (R)-2-(2-((1H-pyrazol-5-yl)amino)-6-(3-methylmorpholino)pyrimidin-4-yl)-2-methylpropanenitrile] | 30.4 | 406
5 | Cc1cc(Nc2cc(C3(C#N)CC3)cc(N3CCOC[C@H]3C)n2)[nH]n1 [Compound 35, 1-{2-[(3-methyl-1H-pyrazol-5-yl)amino]-6-[(3R)-3-methylmorpholin-4-yl]pyridin-4-yl}cyclopropane-1-carbonitrile] | 33.3 | 718
6 | C[C@@H]1COCCN1c1cc(C2(C#N)CCCCC2)cc(Nc2ccn[nH]2)n1 [Compound 38, 1-{2-[(3R)-3-methylmorpholin-4-yl]-6-[(1H-pyrazol-5-yl)amino]pyridin-4-yl} cyclohexane-1-carbonitrile] | 12.3 | 492
7 | C[C@@H]1COCCN1c1cc(C2(C#N)CCCCC2)nc(Nc2ccn[nH]2)n1 [Compound 41, (R)-1-(2-((1H-pyrazol-5-yl)amino)-6-(3-methylmorpholino)pyrimidin-4-yl)cyclohexane-1-carbonitrile] | 2.5 | 370
8 | C[C@@H]1COCCN1c1cc(C2(C#N)CCOCC2)nc(Nc2ccn[nH]2)n1 [Compound 42, (R)-4-(2-((1H-pyrazol-5-yl)amino)-6-(3-methylmorpholino)pyrimidin-4-yl) tetrahydro-2H-pyran-4-carbonitrile] | 19.7 | 640
9 | C[C@@H]1COCCN1c1cc(C2(O)CCCCC2)cc(Nc2ccn[nH]2)n1 [Compound 43, (R)-1-(2-((1H-pyrazol-5-yl)amino)-6-(3-methylmorpholino)pyridin-4-yl) cyclohexan-1-ol] | 52.7 | 653
